The source made the active and inactive calls. No cut-off for these calls is given here.

The first series concerns Mus musculus. Briefly: Anticonvulsant activity in albino Mus musculus (mouse) assessed as protection against maximal electroshock-induced seizures at 300 mg/kg, ip after 0.5 hr relative to control. Type of series: functional, organism-based.
Details: not given
More on the design: dose 300 mg/kg.
On to `CCNC(=S)N1N=C(c2ccccn2)CC1c1ccc(OC)cc1` (stereo not given), for which the outcome was inactive.

As to `COc1ccc(C2CC(c3ccccn3)=NN2C(N)=S)cc1` (stereo not given), the result was inactive.

Turning to `NC(=S)N1N=C(c2ccccn2)CC1c1ccc(OCc2ccccc2)cc1` (stereo not given), the outcome was inactive.

In a further series the test system is Mus musculus. Briefly: Anticonvulsant activity in albino Mus musculus (mouse) assessed as protection against maximal electroshock-induced seizures at 30 mg/kg, ip after 4 hr relative to control. Format: functional, organism-based. Further details: dose 30 mg/kg.
Details: not given
As for `CCNC(=S)N1N=C(c2ccccn2)CC1c1ccc(OC)cc1` (stereo not given), the result was inactive.

On to `COc1ccc(C2CC(c3ccccn3)=NN2C(N)=S)cc1` (stereo not given), for which the result was inactive.

Consider `NC(=S)N1N=C(c2ccccn2)CC1c1ccc(OCc2ccccc2)cc1` (stereo not given), for which the result was inactive.

The subject of another series is Mus musculus. The series can be described thus: Anticonvulsant activity in albino Mus musculus (mouse) assessed as protection against subcutaneous pentylenetetrazol-induced seizures at 300 mg/kg, ip after 0.5 hr relative to control. Type of series: functional, organism-based. More on the design: dose 300 mg/kg.
Details: not given
As to `CCNC(=S)N1N=C(c2ccccn2)CC1c1ccc(OC)cc1` (stereo not given), the outcome was Active.

For `COc1ccc(C2CC(c3ccccn3)=NN2C(N)=S)cc1` (stereo not given), the outcome was Active.

On to `NC(=S)N1N=C(c2ccccn2)CC1c1ccc(OCc2ccccc2)cc1` (stereo not given), for which the result was inactive.

In the next series the test system is Mus musculus. Briefly: Neurotoxicity in albino Mus musculus (mouse) assessed as motor impairment at 100 mg/kg, ip after 4 hr relative to control. Type of series: toxicity, organism-based. More on the design: dose 100 mg/kg, route intraperitoneal. The note with it: in vivo.
Consider `CCNC(=S)N1N=C(c2ccccn2)CC1c1ccc(OC)cc1` (stereo not given), for which the Activity result is on record as “Non-toxic”.

Regarding `COc1ccc(C2CC(c3ccccn3)=NN2C(N)=S)cc1` (stereo not given), the Activity entry was “Non-toxic”.

The next series has as its system Mus musculus. The series can be described thus: Neurotoxicity in albino Mus musculus (mouse) assessed as motor impairment at 30 mg/kg, sc after 0.5 hr relative to control. Further details: dose 30 mg/kg, route subcutaneous. Type of series: toxicity, organism-based. The note with it: in vivo.
Turning to `CCC1(c2ccccc2)C(=O)NC(=O)NC1=O` [PHENOBARBITAL], the Activity result is on record as “Non-toxic”.

The next series relates to Mus musculus. The series can be described thus: Anticonvulsant activity in albino Mus musculus (mouse) assessed as protection against subcutaneous pentylenetetrazol-induced seizures at 100 mg/kg, ip after 0.5 hr relative to control. Further details: dose 100 mg/kg.
Details: not given
Format: functional, organism-based.
Regarding `CCNC(=S)N1N=C(c2ccccn2)CC1c1ccc(OC)cc1` (stereo not given), the outcome was Active.

Turning to `COc1ccc(C2CC(c3ccccn3)=NN2C(N)=S)cc1` (stereo not given), the outcome was Active.

Consider `NC(=S)N1N=C(c2ccccn2)CC1c1ccc(OCc2ccccc2)cc1` (stereo not given), for which the outcome was inactive.

A further series relates to Mus musculus. The series can be described thus: Anticonvulsant activity in albino Mus musculus (mouse) assessed as protection against maximal electroshock-induced seizures at 300 mg/kg, ip after 4 hr relative to control. Format: functional, organism-based. More on the design: dose 300 mg/kg.
Details: not given
A general note: In the maximal electroshock model the usual endpoint is tonic extension of the hind limbs.
`CCNC(=S)N1N=C(c2ccccn2)CC1c1ccc(OC)cc1` (stereo not given): the result was inactive.

As to `COc1ccc(C2CC(c3ccccn3)=NN2C(N)=S)cc1` (stereo not given), the outcome was inactive.

Turning to `NC(=S)N1N=C(c2ccccn2)CC1c1ccc(OCc2ccccc2)cc1` (stereo not given), the result was inactive.

The next series relates to Mus musculus. The series can be described thus: Anticonvulsant activity in albino Mus musculus (mouse) assessed as protection against maximal electroshock-induced seizures at 100 mg/kg, ip after 4 hr relative to control. Format: functional, organism-based. Further details: dose 100 mg/kg.
Details: not given
For `CCNC(=S)N1N=C(c2ccccn2)CC1c1ccc(OC)cc1` (stereo not given), the result was inactive.

Turning to `COc1ccc(C2CC(c3ccccn3)=NN2C(N)=S)cc1` (stereo not given), the result was inactive.

Take `NC(=S)N1N=C(c2ccccn2)CC1c1ccc(OCc2ccccc2)cc1` (stereo not given): the outcome was inactive.

Another series relates to Mus musculus. The series can be described thus: Neurotoxicity in albino Mus musculus (mouse) assessed as motor impairment at 30 mg/kg, ip after 0.5 hr relative to control. Type of series: toxicity, organism-based. More on the design: dose 30 mg/kg, route intraperitoneal. The note with it: in vivo.
For `CCNC(=S)N1N=C(c2ccccn2)CC1c1ccc(OC)cc1` (stereo not given), the Activity entry was “Non-toxic”.

For the compound `COc1ccc(C2CC(c3ccccn3)=NN2C(N)=S)cc1` (stereo not given), the Activity result is recorded as “Non-toxic”.

Another series has as its system Mus musculus. Briefly: Anticonvulsant activity in albino Mus musculus (mouse) assessed as protection against subcutaneous pentylenetetrazol-induced seizures at 30 mg/kg, sc after 0.5 hr relative to control. Format: functional, organism-based. Further details: dose 30 mg/kg.
Details: not given
Consider `CCC1(c2ccccc2)C(=O)NC(=O)NC1=O` [PHENOBARBITAL], for which the result was Active.

The subject of the next series is Mus musculus. The series can be described thus: Anticonvulsant activity in albino Mus musculus (mouse) assessed as protection against subcutaneous pentylenetetrazol-induced seizures at 30 mg/kg, sc after 4 hr relative to control. Type of series: functional, organism-based. Further details: dose 30 mg/kg.
Details: not given
For `CCC1(c2ccccc2)C(=O)NC(=O)NC1=O` [PHENOBARBITAL], the result was Active.

The next series relates to Mus musculus. The series can be described thus: Neurotoxicity in albino Mus musculus (mouse) assessed as motor impairment at 300 mg/kg, ip after 0.5 hr relative to control. More on the design: dose 300 mg/kg, route intraperitoneal. Format: toxicity, organism-based. The note with it: in vivo.
For `CCNC(=S)N1N=C(c2ccccn2)CC1c1ccc(OC)cc1` (stereo not given), the Activity entry is listed as “Non-toxic”.

On to `COc1ccc(C2CC(c3ccccn3)=NN2C(N)=S)cc1` (stereo not given), for which the Activity entry is “Non-toxic”.

Turning to `NC(=S)N1N=C(c2ccccn2)CC1c1ccc(OCc2ccccc2)cc1` (stereo not given), the Activity entry is given as “Toxic”.

For the next series, the system named is Mus musculus. The series can be described thus: Anticonvulsant activity in albino Mus musculus (mouse) assessed as protection against maximal electroshock-induced seizures at 30 mg/kg, ip after 0.5 hr relative to control.
Details: not given
More on the design: dose 30 mg/kg. Format: functional, organism-based.
`CCNC(=S)N1N=C(c2ccccn2)CC1c1ccc(OC)cc1` (stereo not given): the outcome was inactive.

`COc1ccc(C2CC(c3ccccn3)=NN2C(N)=S)cc1` (stereo not given): the result was inactive.

With `NC(=S)N1N=C(c2ccccn2)CC1c1ccc(OCc2ccccc2)cc1` (stereo not given), the outcome was inactive.

A further series deals with Mus musculus. The series can be described thus: Neurotoxicity in albino Mus musculus (mouse) assessed as motor impairment at 300 mg/kg, ip after 4 hr relative to control. Type of series: toxicity, organism-based. Further details: dose 300 mg/kg, route intraperitoneal. The note with it: in vivo.
`CCNC(=S)N1N=C(c2ccccn2)CC1c1ccc(OC)cc1` (stereo not given): the Activity result was “Non-toxic”.

Turning to `COc1ccc(C2CC(c3ccccn3)=NN2C(N)=S)cc1` (stereo not given), the Activity result is reported as “Non-toxic”.

The next series deals with Mus musculus. The series can be described thus: Anticonvulsant activity in albino Mus musculus (mouse) assessed as protection against maximal electroshock-induced seizures at 100 mg/kg, ip after 0.5 hr relative to control. Type of series: functional, organism-based. More on the design: dose 100 mg/kg.
Details: not given
For the compound `CCNC(=S)N1N=C(c2ccccn2)CC1c1ccc(OC)cc1` (stereo not given), the outcome was inactive.

With `COc1ccc(C2CC(c3ccccn3)=NN2C(N)=S)cc1` (stereo not given), the outcome was inactive.

As to `NC(=S)N1N=C(c2ccccn2)CC1c1ccc(OCc2ccccc2)cc1` (stereo not given), the result was inactive.

A further series concerns Mus musculus. Briefly: Anticonvulsant activity in albino Mus musculus (mouse) assessed as protection against maximal electroshock-induced seizures at 30 mg/kg, sc after 4 hr relative to control. Format: functional, organism-based. Further details: dose 30 mg/kg.
Details: not given
As to `CCC1(c2ccccc2)C(=O)NC(=O)NC1=O` [PHENOBARBITAL], the outcome was Active.

Tested on in a further series: not listed separately
Briefly: Partition coefficient, log P of the compound. Type of series: physicochemical. The settings on record: octanol/water.
As to `CCNC(=S)N1N=C(c2ccccn2)CC1c1ccc(OC)cc1` (stereo not given), the logP (commonly the decadic logarithm of the partition coefficient of the neutral form, usually between octanol and water) came to 2.92.

Compound `COc1ccc(C2CC(c3ccccn3)=NN2C(N)=S)cc1` (stereo not given) registered a logP of 2.82.

Turning to `NC(=S)N1N=C(c2ccccn2)CC1c1ccc(OCc2ccccc2)cc1` (stereo not given), the logP was 1.17.

The next series deals with Mus musculus. The series can be described thus: Anticonvulsant activity in albino Mus musculus (mouse) assessed as protection against maximal electroshock-induced seizures at 30 mg/kg, sc after 0.5 hr relative to control. More on the design: dose 30 mg/kg.
Details: not given
Format: functional, organism-based.
Turning to `CCC1(c2ccccc2)C(=O)NC(=O)NC1=O` [PHENOBARBITAL], the result was Active.

Another series relates to Mus musculus. Briefly: Neurotoxicity in albino Mus musculus (mouse) assessed as motor impairment at 30 mg/kg, ip after 4 hr relative to control. Type of series: toxicity, organism-based. Further details: dose 30 mg/kg, route intraperitoneal. The note with it: in vivo.
In the case of `CCNC(=S)N1N=C(c2ccccn2)CC1c1ccc(OC)cc1` (stereo not given), the Activity result is “Non-toxic”.

On to `COc1ccc(C2CC(c3ccccn3)=NN2C(N)=S)cc1` (stereo not given), for which the Activity entry is “Non-toxic”.

On to `NC(=S)N1N=C(c2ccccn2)CC1c1ccc(OCc2ccccc2)cc1` (stereo not given), for which the Activity entry was “Non-toxic”.

For another series, the system named is Mus musculus. The series can be described thus: Anticonvulsant activity in albino Mus musculus (mouse) assessed as protection against subcutaneous pentylenetetrazol-induced seizures at 300 mg/kg, ip after 4 hr relative to control. Format: functional, organism-based. More on the design: dose 300 mg/kg.
Details: not given
As for `CCNC(=S)N1N=C(c2ccccn2)CC1c1ccc(OC)cc1` (stereo not given), the result was Active.

With `COc1ccc(C2CC(c3ccccn3)=NN2C(N)=S)cc1` (stereo not given), the result was inactive.

For `NC(=S)N1N=C(c2ccccn2)CC1c1ccc(OCc2ccccc2)cc1` (stereo not given), the outcome was inactive.

The next series deals with Mus musculus. Briefly: Anticonvulsant activity in albino Mus musculus (mouse) assessed as protection against subcutaneous pentylenetetrazol-induced seizures at 30 mg/kg, ip after 0.5 hr relative to control. Format: functional, organism-based. Further details: dose 30 mg/kg.
Details: not given
Turning to `CCNC(=S)N1N=C(c2ccccn2)CC1c1ccc(OC)cc1` (stereo not given), the result was Active.

Regarding `COc1ccc(C2CC(c3ccccn3)=NN2C(N)=S)cc1` (stereo not given), the outcome was inactive.

Consider `NC(=S)N1N=C(c2ccccn2)CC1c1ccc(OCc2ccccc2)cc1` (stereo not given), for which the outcome was inactive.

A further series deals with Mus musculus. Briefly: Anticonvulsant activity in albino Mus musculus (mouse) assessed as protection against subcutaneous pentylenetetrazol-induced seizures at 100 mg/kg, ip after 4 hr relative to control. Format: functional, organism-based.
Details: not given
More on the design: dose 100 mg/kg.
In the case of `CCNC(=S)N1N=C(c2ccccn2)CC1c1ccc(OC)cc1` (stereo not given), the result was inactive.

`COc1ccc(C2CC(c3ccccn3)=NN2C(N)=S)cc1` (stereo not given): the result was inactive.

For the compound `NC(=S)N1N=C(c2ccccn2)CC1c1ccc(OCc2ccccc2)cc1` (stereo not given), the result was inactive.

A further series has as its system Mus musculus. The series can be described thus: Neurotoxicity in albino Mus musculus (mouse) assessed as motor impairment at 100 mg/kg, ip after 0.5 hr relative to control. Format: toxicity, organism-based. Further details: dose 100 mg/kg, route intraperitoneal. The note with it: in vivo.
For the compound `CCNC(=S)N1N=C(c2ccccn2)CC1c1ccc(OC)cc1` (stereo not given), the Activity entry was “Non-toxic”.

For the compound `COc1ccc(C2CC(c3ccccn3)=NN2C(N)=S)cc1` (stereo not given), the Activity entry is “Non-toxic”.

As for `NC(=S)N1N=C(c2ccccn2)CC1c1ccc(OCc2ccccc2)cc1` (stereo not given), the Activity entry is “Toxic”.

Another series has as its system Mus musculus. Briefly: Neurotoxicity in albino Mus musculus (mouse) assessed as motor impairment at 30 mg/kg, sc after 4 hr relative to control. Format: toxicity, organism-based. More on the design: dose 30 mg/kg, route subcutaneous. The settings on record: in vivo.
Consider `CCC1(c2ccccc2)C(=O)NC(=O)NC1=O` [PHENOBARBITAL], for which the Activity entry is “Non-toxic”.

The test system of another series is Mus musculus. Briefly: Anticonvulsant activity in albino Mus musculus (mouse) assessed as protection against subcutaneous pentylenetetrazol-induced seizures at 30 mg/kg, ip after 4 hr relative to control. Format: functional, organism-based. Further details: dose 30 mg/kg.
Details: not given
Regarding `CCNC(=S)N1N=C(c2ccccn2)CC1c1ccc(OC)cc1` (stereo not given), the outcome was inactive.

Turning to `COc1ccc(C2CC(c3ccccn3)=NN2C(N)=S)cc1` (stereo not given), the outcome was inactive.

Turning to `NC(=S)N1N=C(c2ccccn2)CC1c1ccc(OCc2ccccc2)cc1` (stereo not given), the result was inactive.

The values above are taken from ChEMBL document CHEMBL3045568, “Novel 2-pyrazoline derivatives as potential anticonvulsant agents” (Med Chem Res, 2013).
